Source: paper PMC6773865, “Functional recruitment of dynamin requires multimeric interactions for efficient endocytosis” (Nature Communications, 2019)

Key:
[1] = tested on: rat brain lysate proteins; assay: Affinity isolation (pull-down) from rat brain lysate, silver stain and proteomics; type: binding; conditions: for proteins pulled down (silver stain, words): biotinylated peptide, rat brain lysate, streptavidin beads; for enrichment of co-precipitated proteins by mass spectroscopy: in comparison to control conditions (absence of peptide)
Method: Brains were obtained from adult (2–3 months old) Sprague-Dawley rats raised in the animal facility of Bordeaux University B 33 063 917. Animals were killed by decapitation after isoflurane anaesthesia (5%, 3 min), in accordance with the European 2010/63/EU directive and approved by the Bordeaux University Ethics Committee (CE50). Frozen brains (2 × ~1.5 g) were thawed in 20 mL ice cold modified RIPA buffer (50 mM Tris pH 7.5, 150 mM NaCl, 0.1% SDS, 0.5% sodium deoxycholate, 1% NP-40, 1 mM EDTA) containing a protease inhibitor mixture (1:1000; Protease Inhibitor Cocktail set III; Calbiochem) for about 5 min and cut into small pieces. The tissues were homogenised using a glass/teflon homogeniser. Homogenates were centrifuged at 7500 × g for 25 min at 4 °C to remove cell debris. The supernatant was aliquoted and stored at −80 °C until the affinity-based isolation (pull-down) experiments were performed. Streptavidin-coated beads (Dynabeads M-280, Life Technologies) were washed three times and incubated for 15 min at room temperature (RT) in modified RIPA buffer supplemented with 0.1% BSA. Rat brain lysates were incubated with the biotinylated peptide (or biotin as a negative control) for 10 min at RT before addition of the beads and further incubation for 5 min at RT. Beads were washed five times in RIPA buffer and transferred into new eppendorf tubes. For elution, acetylated ligands were added in excess to the bead suspension and incubated for 5 min at RT. The supernatant was kept for proteomics analysis and electrophoresis followed by silver staining after addition of fresh 6× sample buffer (ProteoSilver Silver Stain Kit, Sigma-Aldrich).
Samples were solubilized in Laemlli buffer and were deposited in triplicate onto SDS-PAGE. Separation was stopped once proteins have entered resolving gel. After colloidal blue staining, bands were cut out from the SDS-PAGE gel and subsequently cut in 1 mm × 1 mm gel pieces. Gel pieces were destained in 25 mM ammonium bicarbonate 50% MeCN, rinsed twice in ultrapure water and shrunk in MeCN for 10 min. After MeCN removal, gel pieces were dried at room temperature, covered with the trypsin solution (10 ng/µl in 50 mM NH4HCO3), rehydrated at 4 °C for 10 min, and finally incubated overnight at 37 °C. Spots were then incubated for 15 min in 50 mM NH4HCO3 at room temperature with rotary shaking. The supernatant was collected, and an H2O/MeCN/HCOOH (47.5:47.5:5) extraction solution was added onto gel slices for 15 min. The extraction step was repeated twice. Supernatants were pooled and dried in a vacuum centrifuge to a final volume of 25 µL. Digests were finally resuspended in 25 µl of formic acid (5%, v/v) and stored at −20 °C.
Peptide mixture was analysed on a Ultimate 3000 nanoLC system (Dionex, Amsterdam, The Netherlands) coupled to a nanospray LTQ-Orbitrap XL mass spectrometer (ThermoFinnigan, San Jose, CA). Ten microliters of peptide digests were loaded onto a 300-µm-inner diameter × 5-mm C18 PepMap^TM trap column (LC Packings) at a flow rate of 30 µL/min. The peptides were eluted from the trap column onto an analytical […] × 15-cm C18 Pep-Map column (LC Packings) with a 4–40% linear gradient of solvent B in 35 min (solvent A was 0.1% formic acid in 5% MeCN, and solvent B was 0.1% formic acid in 80% MeCN). The separation flow rate was set at 300 nL/min. The mass spectrometer operated in positive ion mode at a 2-kV needle voltage. Data were acquired in a data-dependent mode. Mass spectrometry (MS) scans (m/z 300–1700) were recorded at a resolution of R = 70,000 (@ m/z 400) and an AGC target of 5 × 10^5 ions collected within 500 ms. Dynamic exclusion was et to 30 s and top 6 ions were selected from fragmentation in CID mode. MS/MS scans with a target value of 1 × 10^4 ions were collected in the ion trap with a maximum fill time of 200 ms. Additionally, only +2 and +3 charged ions were selected for fragmentation. […]

[2] = target: SH3 domain of amphiphysin (amphSH3); conditions: read-out: affinity for amphSH3; cited from earlier work
Source text: The large GTPase dynamin is essential for vesicle scission[6] and is primarily recruited at the last steps of vesicle formation[4],[7],[8]. Many aspects of the function of this indispensable protein have been deciphered[9] but how its recruitment is regulated in cells is still a matter of debate. In this regard, the C-terminal proline/arginine rich domain of dynamin (dynPRD) is critical. It is a major interaction hub for Src-homology domain 3 (SH3) domain-containing endocytic accessory proteins[10] that bears several class I (RxxPxxP) and class II (PxxPxR) SH3-binding motifs (where P is prolin ...

GST-amphSH3 (dimeric) = target: T1, GST-amphSH3 (dimeric) (Mus musculus, UniProt Q7TQF7); assay: SPR, dimeric GST-amphSH3 on immobilized peptides; type: binding, murine; conditions: below 1 µM
T1 construct: murine Ampiphysin1 SH3 domain residues 607–686); made in house; host or cells: E. coli BL21-CodonPlus (DE3)-RIPL
T1 sequence (Q7TQF7 607-686): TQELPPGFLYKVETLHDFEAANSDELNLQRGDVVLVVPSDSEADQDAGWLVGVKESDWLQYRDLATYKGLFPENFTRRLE

[3] = pull-down from rat brain lysate, LC-MS/MS, vs no peptide control

## CC(=O)N[C@@H](Cc1ccc(O)cc1)C(=O)N[C@@H](CCCCn1cc(CCC(=O)NCCCOCCOCCOCCCNC(=O)CCC(=O)NCCCOCCOCCOCCCNC(=O)CCC(=O)NCCCOCCOCCOCCCNC(=O)CCC(=O)N2CCC[C@H]2C(=O)N2CCC[C@H]2C(=O)N2CCC[C@H]2C(=O)N[C@@H](CCC(N)=O)C(=O)N[C@H](C(=O)N2CCC[C@H]2C(=O)N[C@@H](CO)C(=O)N[C@@H](CCCNC(=N)N)C(=O)N2CCC[C@H]2C(=O)N[C@@H](CC(N)=O)C(=O)N[C@@H](CCCNC(=N)N)C(=O)N[C@@H](C)C(=O)N2CCC[C@H]2C(=O)N2CCC[C@H]2C(=O)NCC(N)=O)C(C)C)nn1)C(=O)NCCCOCCOCCOCCCNC(=O)CCC(=O)NCCCOCCOCCOCCCNC(=O)CCC(=O)NCCCOCCOCCOCCCNC(=O)CCC(=O)N1CCC[C@H]1C(=O)N1CCC[C@H]1C(=O)N1CCC[C@H]1C(=O)N[C@@H](CCC(N)=O)C(=O)N[C@H](C(=O)N1CCC[C@H]1C(=O)N[C@@H](CO)C(=O)N[C@@H](CCCNC(=N)N)C(=O)N1CCC[C@H]1C(=O)N[C@@H](CC(N)=O)C(=O)N[C@@H](CCCNC(=N)N)C(=O)N[C@@H](C)C(=O)N1CCC[C@H]1C(=O)N1CCC[C@H]1C(=O)NCC(N)=O)C(C)C [dD15-N]
[1]
  proteins pulled down (silver stain, words): isolated a number of proteins
  enrichment of co-precipitated proteins by mass spectroscopy: highly enriched in CME related proteins
[1]; [3]
  Max fold change, AP2a1: 28.6
  Max fold change, AP2a2: 13.8
  Max fold change, AP2b1: 40.0
  Max fold change, AP2m1: 25.5
  Max fold change, Actg1: 2.2
  Max fold change, Actg2: 2.3
  Max fold change, Amphiphysin1: 40.7
  Max fold change, Amy1a: 2.8
  Max fold change, Appbp2: 20.8
  Max fold change, Atp1a3: 33.4
  Max fold change, BIN1 (Amph2): 70.2
  Max fold change, CD2-ap: 124.5
  Max fold change, CHC: 22.7
  Max fold change, Calcoco1: 11.9
  Max fold change, Capza1: 23.0
  Max fold change, Dnm1: 27.4
  Max fold change, Endophilin-A1: 53.5
  Max fold change, Endophilin-A2: 1.7
  Max fold change, Eps15l1: 196.9
  Max fold change, Hspa5: 4.1
  Max fold change, Hspa8: 15.6
  Max fold change, Hspa9: 42.1
  Max fold change, Intersectin-1: 60.7
  Max fold change, Intersectin-2: 118.9
  Max fold change, Rundc3a: 16.0
  Max fold change, SH3d19: 42.9
  Max fold change, SH3kbp1/CIN85: 207.5
  Max fold change, SNX18: 16.1
  Max fold change, Tuba1a: 13.3
  Max fold change, Tuba4a: 14.5
  Max fold change, Tubb2a: 75.4
  Max fold change, Tubb3: 1.2
  Max fold change, Tubb4a: 43.4
  Max fold change, Tubb5: 18.0
  Max fold change, Ubc: 1.2

## Ac-YPPPQVPSRPNRAPPG-NH2 [D15, reference compound]
[1]
  proteins pulled down (silver stain, words): unable to pull down any detectable amount of protein
  enrichment of co-precipitated proteins by mass spectroscopy: failed to show any significant enrichment
[1]; [3]
  Max fold change, BIN1 (Amph2): 0.163
  Max fold change, CD2-ap: 0.01
  Max fold change, Endophilin-A1: 0.001
  Max fold change, Intersectin-2: 0.944
  Max fold change, SH3d19: 0.232
  Max fold change, SH3kbp1/CIN85: 0.205
  Max fold change, any SH3 domain-containing protein: < 1
[2]
  Kd: 90 µM
GST-amphSH3 (dimeric)
  binding of GST-amphSH3: no measureable binding
